One compound from patent publication US10946019B2, “Nurr1:RXR activating compounds for simultaneous treatment of symptoms and pathology of Parkinson's disease” (priority 2015, dated 2021) can be followed below.

Structures are written as SMILES.

As usually defined, the half-life is the time in which the quantity being followed falls by half. Low readings indicate fast loss, high ones slow loss.

In data set [1] the test system is wild type 129/SV mice treated with MPTP. Description: Neuroprotection against MPTP in wild type 129/SV mice. The format is in vivo, mouse. Here is the method: 20 mg/kg MPTP injections were administered 4 times at the zero day of treatment, spaced 2 hours apart. 7 days after the MPTP injections there was approximately an 80% reduction in striatal projections and 40%-50% dopaminergic neuron death in the SN.

Data set [2] concerns LRRK2-G2019S mutated DAergic neurons. The data set is described as follows: Neurite phenotypes of PD patient LRRK2-G2019S iPSc-derived DAergic neurons. The settings on record: 12.5 μM for 14 days. The format is cell-based, human. Here is the method: To ascertain the translational therapeutic potential of compound 3, we tested whether human midbrain-specific iPSc-derived DAergic neurons, as indicated by positive staining and qPCR for the neuronal markers MAP2, TH, FoxA2, Lmx1 and En1, can be protected from MPP+ toxicity. Compound 3 was able to double the number of surviving neurons after MPP+ exposure within 24 hours, compared to vehicle (FIGS. 72J-72L). The surviving control neurons had fewer and retreating projections, indicating compromised function (FIG. 72K) while the neurons that had received compound 3 had retained a complex network of projections and contacts (FIG. 72L). In addition, we tested compound 3 in iPSc-derived DAergic neurons from a PD patient carrying the LRRK2-G2019S mutation.

For another data set, the system named is striatum 5HT levels. The data set is described as follows: Striatal 5-HT and 5-HIAA levels by HPLC-ECD. The format is in vivo, mouse. The settings on record: C57/BL6 mice, IP 20 mg/kg, 4 h post injection. As to the method: We measured striatal 5-HT levels, and we detected 5-HT and 5-HIAA in wild type C57/BL6 mice. 4 hours after dosing animals were killed by cervical dislocation, brains were removed, and the striata were dissected on ice. The samples were immediately frozen and stored at −80° C. until use. The tissues were processed for the analysis by high performance liquid chromatography (HPLC) with an electrochemical detector (ECD) (Emmanouil et al., 2006). The dissected tissues were weighed, homogenized, and deproteinized in 0.2 N perchloric acid solution containing 7.9 mM Na2S2O5 and 1.3 mM Na2EDTA. The homogenate was centrifuged at 37,000×g for 30 minutes, and the supernatant was stored at −80° C. until assayed. A reverse-phase ion-pair chromatography was used in all analyses, and the mobile phase consisted of an acetonitrile-50 mM phosphate buffer at pH 3.0, containing 5-octylsulfate sodium salt (300 mg/L) as the ion-pair reagent and (20 mg/L) Na2EDTA. Reference standards were prepared in 0.2 N perchloric acid solution containing 7.9 mM Na2S2O5 and 1.3 mM Na2EDTA. Samples were quantified by comparison of the areas under the peaks with those of reference standards using HPLC software (Chromatography Station for Windows™, Watrex International Inc., San Francisco, Calif.) (FIG. 3C).

The subject of another data set is SHSY-5Y cells. Description: H2O2 induced cell death, MTT assay. The format is cell-based, human. The settings on record: 12.5 μM, varying concentrations of H2O2. An excerpt:
(§1) FIGS. 72A-72R show the ability of compound 3 to induce the expression of genes involved in dopamine biosynthesis as well as the neuroprotective effects of compound 3 in cell lines and patient iPCs-derived dopaminergic neurons. […] FIGS. 72F, 72G, 72H, and 72I show representative confocal microscopy images of the compound 3-treated primary rat cortical neurons. […] FIG. 72M-72R show the effects of compound 3 on PD patient iPS cell-derived dopaminergic neurons with the LRRK2-G2019S mutation or corrected mutation (GC). Compound 3 treatment rescues neurite length (M, expressed in […]), number (N) and branching (O) phenotypes. Representative images show staining with TuJ, TH and DAPI (FIGS. 72P, 72Q, and 72R).
We examined the neuroprotective capability of Nurr1:RXRα heterodimer activation in SHSY-5Y cells where death was induced by either the oxidative stress related H2O2 or the mitochondria complex I inhibitor MPP+ (1-methyl-4-phenylpyridinium) (FIG. 72B). […] The protection conferred by compound 3 was Nurr1-dependent, since it was abrogated by knocking-down endogenous Nurr1 mRNA (FIGS. 1E and 72D). […] Rat cortical neurons, co-transfected with CMV-GFP for identification, and CMVLRRK2-G2019S cDNAs show increased apoptosis as assessed by DAPI staining, compared to control neurons co-transfected with a LRRK2 wt cDNA.
Background: Tetrazolium dyes change colour on reduction, which living cells bring about.

Data set [3] is described as follows: Plasma and brain concentrations by LC-MS/MS after IP administration to mice. The format is in vivo, mouse. The conditions noted are these: mouse, in vivo, ip. Here is the method:
FIGS. 68A and 68B show the pharmacokinetic profile of XCT in blood plasma and in the brain of mice injected with this compound. […] Serial tail bleeds (n=3) were used for detection of the compound in plasma 1 and 2 hours after IP administration. Similarly, mice (n=3) were sacrificed 1 and 2 hours after IP administration and brains were dissected. The concentrations of the parent compound in plasma and brain were determined by LC-MS/MS.
The concentrations of the parent compound in plasma and brain were determined by LC/MSMS.
XCT0135908 was administered to mice to test its bioactivity.

Data set [4] deals with Nur77GAL4:RXRαVP16 heterodimers (Homo sapiens (Human), UniProt P19793). The data set is described as follows: GAL4/VP16 chimera specificity luciferase assay in SHSY-5Y. The data set is classed as cell-based. The conditions noted are these: GAL4-responsive luciferase reporter. An excerpt: To test off-target effects of compound 3 on complexes aside from Nurr1:RXRα heterodimers, we fused the ligand binding domains of Nurr1, RXRα and a variety of related nuclear receptors to GAL4 DNA-binding domain to create chimeric proteins, while the ligand-binding domain of RXRα was also fused with VP16. These molecular chimeras were co-transfected in pairs with the RXRα:VP16 along with a GAL4-responsive luciferase reporter in SHSY-5Y, which were stimulated with compound 3. […] The above experiments indicate the high degree of selectivity of compound 3 and point to its neuroprotective potential.
Chain of Nur77GAL4:RXRαVP16 heterodimers (P19793 whole entry, looked up, the tested form may be a part): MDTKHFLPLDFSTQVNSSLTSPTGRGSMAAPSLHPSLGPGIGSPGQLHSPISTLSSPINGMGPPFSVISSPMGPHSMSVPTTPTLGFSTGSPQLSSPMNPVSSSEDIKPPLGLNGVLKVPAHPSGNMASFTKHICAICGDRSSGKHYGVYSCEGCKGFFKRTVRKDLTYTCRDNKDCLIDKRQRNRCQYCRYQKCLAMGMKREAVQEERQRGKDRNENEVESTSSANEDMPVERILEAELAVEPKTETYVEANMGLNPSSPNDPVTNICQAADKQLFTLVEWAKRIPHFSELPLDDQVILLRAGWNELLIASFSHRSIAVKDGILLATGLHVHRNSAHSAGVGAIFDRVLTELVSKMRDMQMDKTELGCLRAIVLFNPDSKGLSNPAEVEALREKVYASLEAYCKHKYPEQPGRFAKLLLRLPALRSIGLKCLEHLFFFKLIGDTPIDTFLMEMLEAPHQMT
Chain of Nur77GAL4:RXRαVP16 heterodimers (P22736 whole entry partner, looked up, the tested form may be a part): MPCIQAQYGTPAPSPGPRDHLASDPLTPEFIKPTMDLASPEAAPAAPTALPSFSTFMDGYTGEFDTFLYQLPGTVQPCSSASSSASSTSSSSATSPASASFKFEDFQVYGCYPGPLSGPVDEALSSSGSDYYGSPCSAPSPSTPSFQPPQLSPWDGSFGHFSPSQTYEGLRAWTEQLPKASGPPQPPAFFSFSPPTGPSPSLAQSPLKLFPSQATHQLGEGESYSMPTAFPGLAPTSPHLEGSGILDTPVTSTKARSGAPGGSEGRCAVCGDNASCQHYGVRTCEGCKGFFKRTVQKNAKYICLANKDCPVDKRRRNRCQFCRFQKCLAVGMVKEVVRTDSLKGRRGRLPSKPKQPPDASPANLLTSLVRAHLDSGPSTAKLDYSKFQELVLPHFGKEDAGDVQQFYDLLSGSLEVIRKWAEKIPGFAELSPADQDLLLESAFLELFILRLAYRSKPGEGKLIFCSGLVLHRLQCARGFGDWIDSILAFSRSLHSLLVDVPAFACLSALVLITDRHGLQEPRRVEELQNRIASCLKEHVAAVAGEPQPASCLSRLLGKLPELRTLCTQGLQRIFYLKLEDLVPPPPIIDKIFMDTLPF
(In general: Reporter assays use an easily measured gene product as a stand-in for the process of interest.)

A further data set has as its system TH. Description: Expression of DA biosynthesis genes in SHSY-5Y by qPCR. The format is cell-based, human. The settings on record: 12.5 μM, vs vehicle.
Text: as §1
(§2) Nurr1 regulates the transcription of DA biosynthesis genes (Kim et al. J. Neurochem. 85:622-634, 2003 and Gil et al. J Neurochem 101:142-150, 2007); however, whether this process is mediated by Nurr1:RXRα heterodimers is unknown.
A general note: Real-time PCR tracks product formation cycle by cycle.

The test system of data set [5] is aromatic L-amino acid decarboxylase (AADC). The data set is described as above. The settings on record: 12.5 μM, vs vehicle. The format is cell-based, human.
Text: as §1, §2

The test system of another data set is GCH1. Described as above. The format is cell-based, human. The conditions noted are these: 12.5 μM, vs vehicle.
Text: as §1, §2

As for `C=CCc1c(N(C)c2ccc(C(=O)O)cc2)nc(-c2ccccc2)nc1C(F)(F)F` [Example 3, 4-((5-allyl-2-phenyl-6-(trifluoromethyl)pyrimidin-4-yl)(methyl)amino)benzoic acid], in data set [1] (129sv wt mice), the “neuroprotection against MPTP toxicity” value is “equally effective”. For the same compound, in [1] (wild type 129/SV, MPTP, IP 10 mg/kg every 12 hours for 8 days), the “increase in number of surviving neuronal bodies” value is on record as 33.5%. Also, in [2], the “increase of neurite branching” value came out at 650%, the “increase of neurite length” value is recorded as 83% and the “increase of neurite number” value worked out at 38%. Also, in the data set on striatum 5HT levels, the “striatum 5HT levels and 5HT metabolite 5HIAA levels” value is “increased”. In addition, the “cell survival against H2O2” value in the data set on SHSY-5Y cells is given as “significantly increased cell survival”. Moreover, the brain penetration result in data set [3] was “reaching the brain”. Further, in [3] (1 mg/kg), the half-life was approximately 120 min. The “activation of Nur77GAL4:RXRαVP16 heterodimers” value in data set [4] was “partially activated”. In addition, the “increase of TH expression” value with TH is given as “about 90%”. Besides, the “increase of AADC expression” value in [5] was “about 70%”. Further, the “increase of GCH1 expression” value in the data set on GCH1 is on record as “about 42%”.
